Measurements: patent US12286437B2, “Cardiac sarcomere inhibitors” (Cytokinetics, Inc., priority 2021, dated 2025)

Key:
[1] = Dog single dose pharmacokinetics; type: in vivo, beagle dogs; details: male, beagle, plasma, IV, read-out: t½ (converted)
Procedure: Non-naïve male beagle dogs (8 months-3 years of age, body weight 8-13 kg) were used in this study. All animals for IV administration had free access to food and water; all animals for PO were fasted overnight prior to dosing and were fed approximately 6 hours after dosing. For the animals in PO group, pentagastrin (6.0 μg/kg, i.m.) was administrated 20 minutes before dosing PO formulation and 1.5 hours after the first pentagastrin dosing. The dosing volume was 0.024 mL/kg, the concentration was 250 μg/mL in DMSO/1 N NaOH/PBS. 10 mL of 0.001 N HCl was used to wash the gavage catheter for each animal. The IV dose solution was prepared in 10% DMA/50% PG/40% HPβCD solution (40% w/v aqueous HPβCD) at a concentration of 1.0 mg/mL. The oral dose suspension was prepared by suspending the compound in 0.5% HPMC/0.1% Tween 80 in distilled water at a concentration of 0.2 mg/mL. Concentrations of IV and PO doses were measured at the end of the study. PK parameters were calculated using the nominal dose values if the measured values were within 20% of the nominal values. Blood samples were collected by venipuncture of peripheral veins except the dosing vein at pre-dose, 5 15, 30 min, 1, 2, 4, 6, 8, 24 and 48 h post-dose. Blood samples were centrifuged and resultant plasma was frozen for bioanalysis. Plasma samples were stored at −80° C. before analysis. Plasma samples were analyzed for compound concentrations using the LC/MS/MS method. Briefly, a 50 μL aliquot of each plasma sample was mixed with 100 μL of acetonitrile that contained an internal standard. The mixture was vortexed and centrifuged. Ten (10) μL of the resulting solution was injected onto a reverse-phase C18 column and the resultant peaks detected on a LC/MS/MS equipped with a turbo ionspray ionization source. Sample concentrations below the limit of quantification (BLQ) were treated as zero for PK calculations. PK parameters were estimated from individual animals using noncompartmental analysis of the concentration-time data (Phoenix WinNonLin software, version 64; Pharsight, Mountain View, CA). The elimination rate constant (k) was calculated as the absolute value of the slope of the linear regression of logarithm (log) of the concentration versus time for the last three data points of the concentration-time profiles. Apparent elimination half-life (t1/2) values were calculated as ln(2)/k. Area under the concentration-time curve (AUC) values were estimated using linear trapezoidal method. AUCt values were calculated from the dosing time to the last measurable concentration. AUC∞ values were calculated as the sum of the corresponding AUCt and the ratio of the last detectable concentration divided by k. Plasma clearance (CL) was calculated from Dose/AUC∞. Mean resident time extrapolated to infinity (MRT∞) was estimated by moment analysis. Vss was calculated from MRT∞×CL. Maximum concentration (Cmax) and time to reach Cmax (tmax) were recorded as observed. As this was a cross-over study, bioavailability was calculated dAUC∞,po/dAUC∞,iv×100% where dAUC was the dose normalized AUC value from the same animal given IV and PO dose. Data for compounds tested are provided in Table D. Compounds tested were prepared in accordance with the synthetic procedures described herein.

[2] = system: bovine cardiac myofibrils; test: Myofibril assay (ATPase activity of skinned bovine cardiac myofibrils, PK/LDH-coupled); type: biochemical; details: inhibition of steady-state ATPase of bovine cardiac myofibrils; CaCl2 for 50% or 75% activation
Procedure: To evaluate the effect of compounds on the ATPase activity of full-length cardiac myosin in the context of the native sarcomere, skinned myofibril assays were performed. Bovine cardiac myofibrils were obtained by homogenizing bovine cardiac left ventricular tissue in the presence of a detergent such as triton X-100. Such treatment removes membranes and a majority of the soluble cytoplasmic proteins but leaves intact the cardiac sarcomeric acto-myosin apparatus. Myofibril preparations retain the ability to hydrolyze ATP in a Ca^2+ regulated manner. ATPase activities of such myofibril preparations in the presence and absence of compounds were assayed at Ca^2+ concentrations activating to a defined fraction of the maximal rate (i.e., […], 75%). Small molecule agents were assessed for their ability to inhibit the steady-state ATPase activity of bovine cardiac myofibrils using pyruvate kinase and lactate dehydrogenase (PK/LDH)-coupled enzyme system. This assay regenerates myosin-produced ADP into ATP by oxidizing NADH, producing an absorbance change at 340 nm. Prior to testing small molecule agents, the bovine cardiac myofibrils were assessed for their calcium responsiveness and the calcium concentration that achieves either a 50% (pCa50) or 75% (pCa75) activation of the myofibril system was chosen as the final condition for assessing the inhibitory activity of the small molecule agents. All enzymatic activity was measured in a buffered solution containing 12 mM PIPES (piperazine-N,N′-bis(2-ethanesulfonic acid), 2 mM magnesium chloride at pH 6.8 (PM 12 buffer). Final assay conditions were 1 mg/mL of bovine cardiac myofibrils, 4 U/mL pyruvate kinase, 6 U/mL lactate dehydrogenase, 50 μM ATP, 0.1 mg/mL BSA (bovine serum albumin), 10 ppm antifoam, 1 mM DTT, 0.5 mM NADH, 1.5 mM PEP, 0.6 mM EGTA, and an amount of CaCl2 sufficient to achieve either 50% or 75% activation of the myofibril ATPase activity. Results for compounds tested are provided in Table A. Compounds tested were prepared in accordance with the synthetic procedures described herein.

[3] = Projected single-dose CL and Vss values in humans (allometric scaling of mouse, rat, dog, monkey IV PK); details: human, projected by allometric scaling from single-dose IV PK
Procedure: Allometric scaling for the prediction of human Clearance and Volume of Distribution was based on interspecies simple allometric scaling of mouse, rat, dog, and cynomolgus monkey intravenous pharmacokinetic parameters (Boxenbaum, J Pharmacokinet Biopharm 10:201-27, 1982). Prediction of human CL was performed by extrapolating pre-clinical species' plasma intravenous clearance. The ‘rule of exponents’ (Mahmood & Balian, Life Sci 59:579-85, 1996) was examined in this prediction, where it has been proposed that, when the exponent of simple allometry lies between […] and 0.99, a correction factor based on Maximum Life Span (MLP) of this species can be applied and, when the exponent of simple allometry is greater than 1.0, a correction factor based on Brain Weight (BrW) can be applied, or a protein binding correction can be applied when available. In a similar manner, simple allometric scaling was employed to predict human Volume of Distribution. This method has been used successfully for varied drugs (Ward & Smith, Drug Metab Dispos 32:612-19, 2004; McGinnity et al., Curr Drug Metab 8:463-79, 2007).

CYP3A4 = biological target: T1, CYP3A4 (Homo sapiens, UniProt P08684); test: Time-dependent inhibition of CYP3A4 in human liver microsomes (testosterone and midazolam probes); type: in vitro ADME; details: for (% Activity NADPH T0)/(% Activity NADPH T30): fold change
T1 construct: Pooled human microsomes and selective CYP probe substrates were used; from tissue; host or cells: pooled human liver microsomes
Procedure: An assessment of the time-dependent Inhibitory Potential of the test compounds against Principal Human Cytochrome P450 Isozymes using Human Liver Microsomes was also carried out using standard methods (Grimm et al, Drug Metab. Dispos., July; 37(7):1355-70. doi: 10.1124/dmd.109.026716, 2009). Pooled human microsomes and selective CYP probe substrates were used for in vitro assessment of test compounds at 25 and 50 μM as time-dependent inhibitors of […] human hepatic cytochrome P450 isozymes (CYP1A2, 2B6, 2C9, 2C19, 2D6, and 3A4). LC-MS/MS was used to quantify metabolite formation. The inhibition of each P450 enzyme in human liver microsomes was measured as the percentage decrease in the activity of marker metabolite formation as measured by LC-MS/MS compared to non-inhibited controls (=100% activity) at time zero and after 30 minutes incubation. The occurrence of any time dependent inhibition was then expressed as the fold change in enzyme activity at time zero relative to the activity after 30 minutes incubation.

T1 sequence (P08684 whole entry): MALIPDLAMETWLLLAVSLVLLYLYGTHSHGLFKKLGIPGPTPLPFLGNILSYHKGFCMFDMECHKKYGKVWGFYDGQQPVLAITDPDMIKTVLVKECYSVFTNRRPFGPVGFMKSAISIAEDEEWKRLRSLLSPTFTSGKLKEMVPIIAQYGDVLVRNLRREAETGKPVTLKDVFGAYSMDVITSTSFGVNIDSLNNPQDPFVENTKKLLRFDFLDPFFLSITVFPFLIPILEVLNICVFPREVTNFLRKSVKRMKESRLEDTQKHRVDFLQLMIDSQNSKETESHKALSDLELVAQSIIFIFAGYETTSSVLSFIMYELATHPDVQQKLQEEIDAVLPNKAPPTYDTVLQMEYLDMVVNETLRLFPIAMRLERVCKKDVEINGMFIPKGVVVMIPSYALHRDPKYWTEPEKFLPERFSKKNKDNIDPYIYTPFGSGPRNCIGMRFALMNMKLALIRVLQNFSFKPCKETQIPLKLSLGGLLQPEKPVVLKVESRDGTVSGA

Row | half-life [1] [h] | CDMF IC15 [2] [µM] | Projected CL [3] [mL/min/kg] | Projected t½ [3] [h] | Projected Vss [3] [L/kg] | (% Activity NADPH T0)/(% Activity NADPH T30) (CYP3A4; CYP3A4-M (midazolam probe substrate), 25 μM) | (% Activity NADPH T0)/(% Activity NADPH T30) (CYP3A4; CYP3A4-M (midazolam probe substrate), 50 μM) | (% Activity NADPH T0)/(% Activity NADPH T30) (CYP3A4; CYP3A4-T (testosterone probe substrate), 25 μM) | (% Activity NADPH T0)/(% Activity NADPH T30) (CYP3A4; CYP3A4-T (testosterone probe substrate), 50 μM) | change in fold activity of 3A4 (time dependent inhibition) (CYP3A4; both midazolam and testosterone probes, 25 and 50 μM) [fold] | Structure (SMILES)
1 | 39.2 | 1.8 | 1.44 | 38.7 | – | – | – | – | – | – | O=CN1CC2(C1)C(=O)N(c1ccc(F)cc1F)CC(=O)N2Cc1ccc(Cl)cc1 [Comparator A, 5-(4-chlorobenzyl)-8-(2,4-difluorophenyl)-6,9-dioxo-2,5,8-triazaspiro[3.5]nonane-2-carbaldehyde, reference compound]
2 | 23.7 | 1.1 | 0.96 | 62 | 5.16 | – | – | – | – | – | CC(=O)N1CC2(C1)C(=O)N(c1ccc(C#N)cc1F)CC(=O)N2Cc1ccc(C(F)(F)F)cc1 [Comparator D, 4-(2-acetyl-6,9-dioxo-5-(4-(trifluoromethyl)benzyl)-2,5,8-triazaspiro[3.5]nonan-8-yl)-3-fluorobenzonitrile]
3 | 33.1 | 1.3 | 1.2 | 51.7 | 5.5 | – | – | – | – | – | O=CN1CC2(C1)C(=O)N([C@H]1CC[C@H](C(F)F)CC1)CC(=O)N2Cc1ccc(C(F)(F)F)cc1 [Comparator E, 8-((1r,4r)-4-(difluoromethyl)cyclohexyl)-6,9-dioxo-5-(4-(trifluoromethyl)benzyl)-2,5,8-triazaspiro[3.5]nonane-2-carbaldehyde]
4 | 14.7 | 1.1 | 3.9 | 41 | 13.9 | 1.6 | 1.7 | 1.8 | 1.8 | > 1.5 | O=C1[C@H](C2COC2)N(Cc2ccc(C(F)(F)F)cc2)C(=O)CN1c1ncc(Cl)cc1F [Comparator C, (S)-1-(5-chloro-3-fluoropyridin-2-yl)-3-(oxetan-3-yl)-4-(4-(trifluoromethyl)benzyl)piperazine-2,5-dione, reference compound]
